# Reference: US20130052134A1, “PEG-PLGA-PLL POLYMER AND METHOD FOR PREPARING AND USING THE SAME AS THE DRUG AND GENE CARRIER” (Shanghai Cancer Institute, priority 2009, published 2013)
# Test system: MDA-MB-231 mammary cancer
# Assay: Therapeutic test in mice bearing MDA-MB-231 mammary cancer (tumor volume)
# Assay type: in vivo, nude mice
# Conditions: tail intravenous injection once every 4 days; treatment duration 36 days
# Procedure: 0.2 ml of MDA-MB-231 mammary cancer cells (2×10^5) was subcutaneously injected to the axillary region near the forelimb of nude mice, and 2 weeks later, the tumor model was successfully established.
# In the therapeutic test, corresponding normal saline, free mitoxantrone, drug-loaded mPEG-PLGA-PLL nanoparticles and drug-loaded mPEG-PLGA-PLL-RGD nanoparticles were given once every 4 days through tail intravenous injection, the tumor volume was subsequently measured, and the treatment duration was 36 days.
smiles,measurement,value
"O=C1c2c(O)ccc(O)c2C(=O)c2c(NCCNCCO)ccc(NCCNCCO)c21 [free mitoxantrone chloride, mitoxantrone chloride]",tumor inhibition rate,10.32%
